pIC50: −log10 of the molar value. Values after ≈ are worked out from the molar mass of the structure shown. Read-outs that look alike come from different tables or passages of the source.
Assays:
[1] = tested on: P388 murine leukemia cells; experiment: MTT cytotoxicity test on P388 murine leukemia cells (Table 1); assay type: cell-based; settings: 3 days
Procedure: P388 murine leukemia cells were spread over a 96-well microplate, 2.5×10^3 cells per well. A sample to be tested was added after 24 hours. Cells were cultivated under the conditions of 5% CO2 at 37° C. for 3 days. 3-(4,5-Dimethylthiazol-2-yl)-2,5-diphenyl-2H-tetrazolium bromide (MTT) was added 4 hours after the addition of the sample. Upon the addition of […] of isopropyl alcohol containing 0.04N HCl the absorption at 540 nm was measured to determine IC50.

MKN28 (Stomach) = experiment: In vitro anti-proliferative activity, MKN28 (Table 2-2); assay type: cell-based; settings: Homo sapiens, MKN-28, 72 h, read-out: in vitro anti-proliferative activity (Gl50)
Procedure: (§1) In vitro anti-proliferative activities of the drugs against 4 human and 1 murine cell lines were measured by the MTT assay (see page 11 of the parent specification) after 3 days incubation, and expressed as the doses required to inhibit growth of 50% cells cultivated (Gl50, ng/ml).

QG90 (Lung) = experiment: In vitro anti-proliferative activity, QG90 (Table 2-2); assay type: cell-based; settings: Homo sapiens, QG-90, 72 h, read-out: in vitro anti-proliferative activity (Gl50)
Procedure: as §1

MCF-7 (Breast) = experiment: In vitro anti-proliferative activity, MCF-7 (Table 2-2); assay type: cell-based; settings: Homo sapiens, MCF7, 72 h, read-out: in vitro anti-proliferative activity (Gl50)
Procedure: as §1

Acute toxicity in mice = assay type: in vivo; settings: i.v., male BALB/c mice, survival on day 14, Probit method
Procedure: Groups of 5 male BALB/c mice were administered intravenously with several doses of drugs, and their survivals from death were recorded up to day 14. The 10 and 50% lethal doses (LD10 and LD50) were calculated form the survival rate on day 14 by the Probit method.

p388 (Mouse leukemia) = experiment: In vitro anti-proliferative activity, p388 (Table 2-2); assay type: cell-based; settings: read-out: in vitro anti-proliferative activity (Gl50)
Procedure: as §1

HOC-21 (Ovary) = experiment: In vitro anti-proliferative activity, HOC-21 (Table 2-2); assay type: cell-based; settings: Homo sapiens, read-out: in vitro anti-proliferative activity (Gl50)
Procedure: as §1

Meth A fibrosarcoma = experiment: In vivo anti-tumor activity, Meth A fibrosarcoma in BALB/c mice (Table 3); settings: i.v.; for Death Nos.: qd×4; for Tumor cell anti-proliferative activity: qd×4 (days 5-8), day 14
Procedure: In vivo anti-tumor activities of drugs were assayed with Meth A fibrosarcoma in BALB/c mice. Mice were treated intravenously with several doses of drugs on days 5, 6, 7, and 8 (qd×4) after hypodermic tumor implantation, and the weight of the tumor masses measured on day 14. The anti-tumor activities of drugs against the tumor were expressed as the relative tumor weight of controls (%).

[2] = tested on: 4 human and 1 murine cell lines; experiment: In vitro anti-proliferative activity, mean over the cell lines (Table 2-2); assay type: cell-based; settings: read-out: in vitro anti-proliferative activity (Gl50), MEAN
Procedure: as §1

[3] = tested on: P388 murine leukemia cells; experiment: MTT method, activity on p388 cells (Table 2-1); assay type: cell-based; settings: Mus musculus
Procedure: (§2) See page 11 of the parent specification. In detail, p388 murine leukemia cells, MKN 28 (human stomach cancer cells), QG56 (human lung cancer cells) and HOC21 (human ovarian cancer cells) were provided. The cells were spread over a 96-well microplate, respectively, and a sample to be tested was added to each of them after 24 hours. Cells were cultivated under the conditions of 5% CO2 at 37° C. for 3 days.
(§3) 3-(4,5-Dimethylthiazol-2-yl)-2,5-diphenyl-2H-tetrazolium bromide (abbriviated as MTT) was added thereto 4 hours after the addition of the sample. Upon the addition of […] of isopropyl alcohol containing 0.04N HCl, the absorption at 540 nm was measured To determine IC50.

[4] = tested on: MKN 28 (human stomach cancer cells); experiment: MTT method, activity on MKN28 cells (Table 2-1); assay type: cell-based; settings: MKN-28, 72 h
Procedure: as §2, §3

topoisomerase I = molecular target: T1, topoisomerase I (Mus musculus, UniProt Q04750); experiment: Topoisomerase I assay, relaxation of supercoiled SV40 DNA; assay type: biochemical, p388 mouse leukemia
T1 construct: Topoisomerase I was prepared from p388 mouse leukemia; endogenous in cells; host or cells: P388 mouse leukemia
T1 sequence (Q04750 1-767): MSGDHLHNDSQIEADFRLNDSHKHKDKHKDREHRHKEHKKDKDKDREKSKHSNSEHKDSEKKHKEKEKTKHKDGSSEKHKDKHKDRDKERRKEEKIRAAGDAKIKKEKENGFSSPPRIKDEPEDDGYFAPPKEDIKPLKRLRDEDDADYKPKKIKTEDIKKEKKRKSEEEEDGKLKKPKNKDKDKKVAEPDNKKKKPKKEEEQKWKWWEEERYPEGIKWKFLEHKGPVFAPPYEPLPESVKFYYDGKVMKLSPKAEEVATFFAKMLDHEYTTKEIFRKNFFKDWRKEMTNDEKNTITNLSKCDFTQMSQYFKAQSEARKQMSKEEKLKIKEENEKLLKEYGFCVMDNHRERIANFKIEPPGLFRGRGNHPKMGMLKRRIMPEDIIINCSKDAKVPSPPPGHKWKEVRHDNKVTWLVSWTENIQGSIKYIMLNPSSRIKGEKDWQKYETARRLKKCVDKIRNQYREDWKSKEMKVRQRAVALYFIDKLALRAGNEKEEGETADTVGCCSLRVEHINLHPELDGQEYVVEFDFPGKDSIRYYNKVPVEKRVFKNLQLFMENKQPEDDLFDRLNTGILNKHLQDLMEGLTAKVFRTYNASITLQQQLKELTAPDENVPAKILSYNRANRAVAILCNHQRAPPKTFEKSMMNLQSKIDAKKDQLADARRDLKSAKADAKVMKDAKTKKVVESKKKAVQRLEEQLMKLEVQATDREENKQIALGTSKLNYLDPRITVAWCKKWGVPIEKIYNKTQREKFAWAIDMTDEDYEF
Procedure: Topoisomerase I was prepared from p388 mouse leukemia. One unit (the minimum amount of full relaxation of 0.5 μg SV40 DNA) of topoisomerase I,
0.5 μl of the test compounds, and 0.5 μg of SV40 DNA were added sequentially to the reaction buffer. The reaction mixture (50 μl) was incubated for 10 min and 37° C. and analyzed by electrophoresis, the gel was stained with 0.05% ethydium bromide and photographed with UV light. The DNA was quantified using a densitometor. The inhibition rate of the topoisomerase activity was calculated as [formula] where Frt and Frc are ratios of relaxed DNA to total DNA treated with topoisomerase in the presence and absence of the test drug, respectively. Fr is the proportion of relaxed DNA in untreated DNA. The IC50 of each test drug was estimated from the dose-response.

[5] = tested on: HOC21 (human ovarian cancer cells); experiment: MTT method, activity on HOC21 cells (Table 2-1); assay type: cell-based; settings: HOC-21, 72 h
Procedure: as §2, §3

[6] = tested on: QG56 (human lung cancer cells); experiment: MTT method, activity on QG56 cells (Table 2-1); assay type: cell-based; settings: QG-56, 72 h
Procedure: as §2, §3

[7] = clinical tests in the United States; cited from earlier work
nucleic acid synthesis = settings: background statement; cited from earlier work
[8] = MKN28 (Stomach), MTT, 3 days incubation
[9] = QG90 (Lung), MTT, 3 days incubation
[10] = MCF-7 (Breast), MTT, 3 days incubation
[11] = 72 h, p388 (Mouse leukemia), MTT, 3 days incubation
[12] = 72 h, HOC-21 (Ovary), MTT, 3 days incubation

Work on `CC[C@@]1(O)C(=O)OCc2c1cc1n(c2=O)Cc2c-1nc1cccc3c1c2C(N)CC3.Cl` (single isomer, unassigned) [Example 2 (Isomer A)] yielded an IC50 ([1]; hydrochloride) of 3.38 ng/mL.
Compound `CC[C@@]1(O)C(=O)OCc2c1cc1n(c2=O)Cc2c-1nc1cccc3c1c2C(N)CC3.Cl` (single isomer, unassigned) [Example 2 (Isomer B)] has an IC50 ([1]; hydrochloride) of 12.40 ng/mL.
In the case of `CC[C@@]1(O)C(=O)OCc2c1cc1n(c2=O)Cc2c-1nc1ccc(OC)c3c1c2C(N)CC3.Cl` (single isomer, unassigned) [Example 4 (Isomer A)], the IC50 ([1]; hydrochloride) was 9.21 ng/mL.
Compound `CC[C@@]1(O)C(=O)OCc2c1cc1n(c2=O)Cc2c-1nc1ccc(OC)c3c1c2C(N)CC3.Cl` (single isomer, unassigned) [Example 4 (Isomer B)] has an IC50 ([1]; hydrochloride) of 27.80 ng/mL.
Compound `CC[C@@]1(O)C(=O)OCc2c1cc1n(c2=O)Cc2c-1nc1ccc(OC)c3c1c2CCC3N.Cl` (single isomer, unassigned) [Example 7 (Isomer A)] has an IC50 ([1]; Mus musculus, P388, 72 h, read-out: IC50) of 11.4 ng/mL.
Compound `CC[C@@]1(O)C(=O)OCc2c1cc1n(c2=O)Cc2c-1nc1ccc(OC)c3c1c2CCC3N.Cl` (single isomer, unassigned) [Example 7 (Isomer B)] has an IC50 ([1]; hydrochloride) of 11.90 ng/mL.
In the case of `CCc1c2c(nc3ccc(OC(=O)N4CCC(N5CCCCC5)CC4)cc13)-c1cc3c(c(=O)n1C2)COC(=O)[C@]3(O)CC` [CPT-11, irinotecan], the IC50 (MKN28 (Stomach); [8]) was 8690 ng/mL (≈ 14.8 µM), the IC50 (QG90 (Lung); [9]) was 1550 ng/mL (≈ 2.65 µM) and the IC50 (MCF-7 (Breast); [10]) was 1200 ng/mL (≈ 2.04 µM). It also gave an LD10 (Acute toxicity in mice) of 198 mg/m^2, an LD50 (Acute toxicity in mice) of 270 mg/m^2 and an IC50 (p388 (Mouse leukemia); [11]) of 2850 ng/mL (≈ 4.86 µM). For the same compound, the IC50 (HOC-21 (Ovary); [12]) was 15100 ng/mL (≈ 25.7 µM), the “Death Nos.” value (Meth A fibrosarcoma; total dose 25 mg/kg) was 0/6 and the “Tumor cell anti-proliferative activity” value (Meth A fibrosarcoma; total dose 25 mg/kg) was 31.4%. The “Death Nos.” value (Meth A fibrosarcoma; total dose 50 mg/kg) was 0/6, the “Tumor cell anti-proliferative activity” value (Meth A fibrosarcoma; total dose 50 mg/kg) was 53.3% and the “Death Nos.” value (Meth A fibrosarcoma; total dose 100 mg/kg) was 0/6. The “Tumor cell anti-proliferative activity” value (Meth A fibrosarcoma; total dose 100 mg/kg) was 62.3%, the “Death Nos.” value (Meth A fibrosarcoma; total dose 200 mg/kg) was 0/6 and the “Tumor cell anti-proliferative activity” value (Meth A fibrosarcoma; total dose 200 mg/kg) was 79.4%. It also gave an IC50 ([2]; mean of the 5 cell lines) of 5870 ng/mL (≈ 10 µM).
Work on `CC[C@@]1(O)C(=O)OCc2c1cc1n(c2=O)Cc2c-1nc1cc(F)c(C)c3c1c2C(N)CC3.Cl` (stereo partly drawn) [DX-8951, (9S)-1-amino-9-ethyl-5-fluoro-2,3-dihydro-9-hydroxy-4-methyl-1H,12H-benzo[de]pyrano[3',4':6,7]indolizino[1,2-b]quinoline-10,13(9H,15H)-dione hydrochloride] yielded an IC50 (MKN28 (Stomach)) of 1.75 ng/mL, an IC50 (QG90 (Lung)) of 0.66 ng/mL and an IC50 (MCF-7 (Breast)) of 0.16 ng/mL. It also gave an IC50 ([3]; P388, 72 h) of 0.58 ng/mL, an IC50 [4] of 9.4 ng/mL and a pIC50 (topoisomerase I) of 5.95. It also gave an IC50 [5] of 12.8 ng/mL, an LD10 (Acute toxicity in mice) of 228 mg/m^2 and an LD50 (Acute toxicity in mice) of 270 mg/m^2. The IC50 [6] was 0.67 ng/mL, the IC50 (p388 (Mouse leukemia); Mus musculus, P388, 72 h) was 1.06 ng/mL and the IC50 (HOC-21 (Ovary); HOC-21, 72 h) was 3.67 ng/mL. The “Death Nos.” value (Meth A fibrosarcoma; total dose 1.875 mg/kg) was 0/6, the “Tumor cell anti-proliferative activity” value (Meth A fibrosarcoma; total dose 1.875 mg/kg) was 72.5% and the “Death Nos.” value (Meth A fibrosarcoma; total dose 3.75 mg/kg) was 0/6. For the same compound, the “Tumor cell anti-proliferative activity” value (Meth A fibrosarcoma; total dose 3.75 mg/kg) was 78.3%, the “Death Nos.” value (Meth A fibrosarcoma; total dose 7.5 mg/kg) was 0/6 and the “Tumor cell anti-proliferative activity” value (Meth A fibrosarcoma; total dose 7.5 mg/kg) was 87.5%. For the same compound, the “Death Nos.” value (Meth A fibrosarcoma; total dose 15 mg/kg) was 0/6, the “Tumor cell anti-proliferative activity” value (Meth A fibrosarcoma; total dose 15 mg/kg) was 96.6% and the “Death Nos.” value (Meth A fibrosarcoma; total dose 30 mg/kg) was 2/6. For the same compound, the “Tumor cell anti-proliferative activity” value (Meth A fibrosarcoma; total dose 30 mg/kg) was 96.4% and the IC50 [2] was 1.46 ng/mL.
`CCc1c2c(nc3ccc(O)cc13)-c1cc3c(c(=O)n1C2)COC(=O)[C@]3(O)CC` [SN-38, 7Ethyl-10-hydroxycamptothecin] showed an IC50 (MKN28 (Stomach); [8]) of 21.7 ng/mL (≈ 0.0552 µM), an IC50 (QG90 (Lung); [9]) of 1.43 ng/mL (≈ 0.00364 µM) and an IC50 (MCF-7 (Breast); [10]) of 0.49 ng/mL (≈ 0.00125 µM). The IC50 ([3]; 72 h, p388, MTT, 3 days, read-out: IC50) was 1.33 ng/mL (≈ 0.00339 µM), the IC50 ([4]; MKN28, MTT, 3 days, read-out: IC50) was 61 ng/mL (≈ 0.155 µM) and the IC50 (topoisomerase I; SV40 DNA, 10 min, 37° C., read-out: Inhibition of topoisomerase I-induced relaxation of supercoiled DNA (IC50) (converted)) was 3.57 µM. For the same compound, the IC50 ([5]; HOC21, MTT, 3 days, read-out: IC50) was 53.2 ng/mL (≈ 0.136 µM), the IC50 ([6]; QG56, MTT, 3 days, read-out: IC50) was 2.46 ng/mL (≈ 0.00627 µM) and the IC50 (p388 (Mouse leukemia); [11]) was 3.22 ng/mL (≈ 0.00821 µM). It also gave an IC50 (HOC-21 (Ovary); [12]) of 21.4 ng/mL (≈ 0.0544 µM) and an IC50 ([2]; mean of the 5 cell lines) of 9.63 ng/mL (≈ 0.0245 µM).
For `CC[C@@]1(O)C(=O)OCc2c1cc1n(c2=O)Cc2cc3ccccc3nc2-1` [camptohecin, camptothecin], the “safety in clinical tests” value [7] is given as “problem in view of safety”, the pIC50 (topoisomerase I) is given as 4.36 and the antitumor activity (nucleic acid synthesis) is given as “exhibit an antitumor activity”.

Reference: patent US5637770A (priority 1991, dated 1997)
